Tests used:
[1] = Magnetic susceptibility from levitation of a glass bead in solutions of the paramagnetic salt; assay type: physicochemical; settings: four solutions 100-175 mM in 9:1 chlorobenzene-toluene, 23° C.
Procedure: The average magnetic susceptibility for solid Gd(DT3) (in the centimeter-gram-second system of units, cgs (cm^3/mol)) was determined by measuring the magnetic susceptibilities for solutions of Gd(DT3) (χl^SI, International System of Units), and by inputting these values into Equation (3). χl^SI=4πχl^CGS[Gd^3+] (3)
Magnetic susceptibility values were measured for solutions of Gd(DT3) (100-175 mM) in 9:1 chlorobenzene-toluene (23° C.) by levitating a glass bead (ρp=1.0900 g/cm^3) in these solutions (FIG. 12A). This mixture of solvents is adequate because it has a density (ρl=1.082±0.003 g/cm^3) slightly below the density of the glass bead that was used. The vertical position of the glass bead (z) in each solution was determined using a ruler, and the densities of the solutions were measured by weighing 1 mL samples. […]
The remaining variable in Equation (1) that required measuring before the calculation of χl^SI could be completed was the strength of the magnetic field at the surface of the magnet (Bmax). […] This value was determined using solutions of GdCl3 (70-100 mM) with known magnetic susceptibilities and by levitating a glass bead (ρp=1.0200 g/cm^3) in these solutions. […]
The calibrated value for Bmax was used to calculate the χl^SI values for the solutions of Gd(DT3) (using Equation (1) and values for ρl and z that were measured experimentally). […]

[2] = Capillary electrophoresis (Job's plot) binding affinity of the DT3 ligand for Gd^3+ in methanol; settings: 25° C., 1:1 complex with Gd^3+, read-out: dissociation constant (Kd)
Procedure: FIG. 11 is a plot of peak area of the Gd(DT3) by capillary electrophoresis vs. mole fraction of Gd^3+ and illustrates the Job's plot assay for determination of the stoichiometry of and dissociation constant for Gd(DT3) in methanol.
The binding affinity of the DT3 ligand for Gd^3+ and the stoichiometry of the Gd(DT3) complex was determined using capillary electrophoresis (CE). […] See, FIG. 11. […] Gadolinium(III) chloride (the source of Gd^3+ for these experiments) is insoluble in non-polar organic solvents; the dissociation constants was not measured in these solvents.

[3] = known value; cited from earlier work
[4] = Label-free detection of streptavidin binding to solid-supported biotin by magnetic levitation
Description: Beads of biotin-labeled PEGA polymer swell in water (unlike polystyrene-based solid supports), have a loading capacity of 0.2 mmol amine/g PEGA, and pores of sufficient size for ˜70 kDa proteins to access the biotin on the interior of the polymer. The sensitivity of detection depends directly on the loading capacity (i.e., surface density of reacting groups) of the beads and the molecular weight of the bound molecules. In initial experiments, precipitation was observed after adding proteins to the aqueous Gd^3+ solution, so a Gd3+·DTPA chelate was used instead.
Binding of streptavidin to solid-supported biotin was detected by incubating ˜20 water saturated polymer beads with 20 μL of 0.19-mM protein dissolved in 40-mM potassium phosphate buffer (pH 7.0). After 15 min the solution, was diluted to 1.5 mL to suspend the beads using 210-mM Gd^3+·DTPA in 40-mM potassium phosphate buffer (pH 7.5), and then added ˜20 more biotin-labeled polymer beads. The solution was mixed gently for 5 s with a spatula, and then the cuvette was inserted along the axis of the magnets. After approximately 30 min, all of the beads had clustered into two separate bands (FIG. 19A), the upper one levitating at the same height as the unlabeled PEGA polymer. […]

## gadolinium(III) diethylenetriamine triacetic acid tetradecane [Gd(DT3)]
[1]
  average molar magnetic susceptibility χl^CGS: 0.036±0.003 cm^3/mol

## diethylenetriamine triacetic acid tetradecane [DT3 ligand]
[2]
  Kd: 300 nM

## [Cl][Mn][Cl] [MnCl2]
[3]
  molar magnetic susceptibility of the solid salt: 14350×10^−6 cm^3/mol

## streptavidin: a 53-kDa protein
[4]; biotin-labeled PEGA beads, 210-mM Gd^3+·DTPA, 40-mM potassium phosphate buffer
  binding to solid-supported biotin (levitation band): binding of streptavidin to the solid-supported biotin
[4]; unlabeled PEGA polymer beads
  non-specific adsorption to unlabeled PEGA polymer (control): no obvious non-specific adsorption

From US9551706B2, “Density-based methods for separation of materials, monitoring of solid supported reactions and measuring densities of small liquid volumes and solids” (President and Fellows of Harvard College, priority 2007, dated 2017)
